Data from US20230226056A1, “[…] FOR PREVENTING OR TREATING SARS-COV-2 INFECTIONS” (priority 2020, published 2023).
“Also recorded” adds a separate entry of the source.

Key:
Oral toxicity = type: in vivo
[1] = Maximum solubility of ectoine; type: physicochemical
From the text: For a maximally saturated solute solution, concentrations that are just below the solubility limit of the respective solute are preferred. Such a highly concentrated solute solution can be used as a starting solution to prepare the solution required on site. In this way, individual solutions can be diluted depending on the administration required, the patient's condition (existing conditions, age, etc.) and/or desired therapy. This is especially beneficial when not differently concentrated solutions can be stored.

[2] = molecular target: T1, SARS-CoV-2 Spike S1 protein binding to ACE2-expressing A549 cells (Severe acute respiratory syndrome coronavirus 2, UniProt P0DTC2); type: cell-based
T1 construct: the HIS-tagged SARS-Cov2-S1 protein is added to each tube; ACE2: endogenous in A549 cells (ATCC)

[3] = Plasma concentration after oral ectoine in rats; type: in vivo; conditions: 1000 mg/kg
[4] = Osmolarity of ectoine solution; type: physicochemical
From the text: An isotonic NaCl solution of 0.9% has an osmolar activity of 286 mOsmol/kg H2O. A 2% ectoine solution has an osmolarity of 147 mOsmol/kg H2O. An isotonic ectoine solution thus has a concentration of 3.89%.

Row | Compound | NOAL (Oral toxicity) | maximum solubility ([1]; 25° C.) | maximum solubility ([1]; 40° C.) | Median (background-subtracted fluorescence, Mann Whitney test) [2] | bound viral Cov2 S1 protein on the cell surface [2] | fluorescence of the Cov2 S1 protein bound to A549 cells [2] | inhibition of the binding of the Cov2 S1 protein to A549 cells [2] | inhibitory effect on Cov2 S1 binding [2] | plasma concentration [3] | osmolarity ([4]; 2% ectoine solution) | concentration of an isotonic ectoine solution ([4]; relative to isotonic 0.9% NaCl, 286 mOsmol/kg H2O) | effect on Cov2 S1 protein binding to A549 cells [2] | effect on the binding between Cov2 S1 and the A549 cells [2]
1 | CC1=N[C@H](C(=O)O)CCN1 [ectoine, (4S)-2-Methyl-1,4,5,6-tetrahydropyrimidine-4-carbon acid] | 2000 mg/kg body weight/day | about 550 g/L | about 620 g/L | 0.3050, n = 4 | less or no bound viral Cov2 S1 protein | lower fluorescence | complete inhibition; also recorded: positive effect | significant | 99 µg/mL | 147 mOsmol/kg H2O | 3.89% | – | –
2 | CC(=O)NCC[C@H](N)C(=O)O [NADA, Nγ-Acetyl-L-2,4-diaminobutyric acid, reference compound] | – | – | – | 1.820, n = 4 | – | – | no inhibition; also recorded: little inhibition; also recorded: no significant effect | comparable to untreated cells | – | – | – | no effect | No effect
